The results in this text go back to ChEMBL document CHEMBL3632492, “Substituted 2-arylquinazolinones: Design, synthesis, and evaluation of cytotoxicity and inhibition of topoisomerases” (Eur J Med Chem, 2015).

By inhibition is commonly meant the drop in the measured response relative to a control, in per cent. In general, IC50 refers to the concentration that inhibits the measured activity by half. A lower IC50 goes with higher potency.

Assay [1] has as its target T1, DNA topoisomerase 1 (Homo sapiens) (UniProt P11387).
T1 sequence (whole entry): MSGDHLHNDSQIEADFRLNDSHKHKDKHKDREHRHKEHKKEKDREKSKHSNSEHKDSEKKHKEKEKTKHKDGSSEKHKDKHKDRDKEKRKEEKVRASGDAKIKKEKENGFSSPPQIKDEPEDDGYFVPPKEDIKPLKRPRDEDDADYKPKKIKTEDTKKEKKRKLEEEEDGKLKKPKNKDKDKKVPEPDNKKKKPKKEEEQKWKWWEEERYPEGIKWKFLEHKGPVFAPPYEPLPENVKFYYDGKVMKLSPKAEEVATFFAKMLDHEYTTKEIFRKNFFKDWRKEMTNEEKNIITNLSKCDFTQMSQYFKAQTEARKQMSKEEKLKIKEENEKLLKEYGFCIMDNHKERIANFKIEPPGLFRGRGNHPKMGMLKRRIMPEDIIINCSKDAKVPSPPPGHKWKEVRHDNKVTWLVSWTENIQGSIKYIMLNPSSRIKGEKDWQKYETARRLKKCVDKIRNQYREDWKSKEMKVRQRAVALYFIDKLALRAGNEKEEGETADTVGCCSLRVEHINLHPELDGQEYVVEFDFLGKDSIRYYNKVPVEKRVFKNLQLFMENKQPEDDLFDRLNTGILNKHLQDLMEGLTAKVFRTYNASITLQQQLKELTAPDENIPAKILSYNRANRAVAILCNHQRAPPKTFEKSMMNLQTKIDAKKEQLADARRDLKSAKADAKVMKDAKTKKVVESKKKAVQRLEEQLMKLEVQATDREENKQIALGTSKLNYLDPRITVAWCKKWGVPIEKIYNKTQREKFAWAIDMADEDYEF
The assay is described as follows: Inhibition of recombinant human topoisomerase 1 assessed as relaxation of supercoiled plasmid DNA pBR322 at 100 uM incubated for 30 mins by agarose gel electrophoresis.

The target of assay [2] is DNA topoisomerase 2-alpha (Homo sapiens) (UniProt P11388). The assay is described as follows: Inhibition of recombinant human topoisomerase 2alpha assessed as relaxation of supercoiled plasmid DNA pBR322 at 100 uM incubated for 30 mins by agarose gel electrophoresis.
Sequence of DNA topoisomerase 2-alpha (Homo sapiens) (P11388 whole entry): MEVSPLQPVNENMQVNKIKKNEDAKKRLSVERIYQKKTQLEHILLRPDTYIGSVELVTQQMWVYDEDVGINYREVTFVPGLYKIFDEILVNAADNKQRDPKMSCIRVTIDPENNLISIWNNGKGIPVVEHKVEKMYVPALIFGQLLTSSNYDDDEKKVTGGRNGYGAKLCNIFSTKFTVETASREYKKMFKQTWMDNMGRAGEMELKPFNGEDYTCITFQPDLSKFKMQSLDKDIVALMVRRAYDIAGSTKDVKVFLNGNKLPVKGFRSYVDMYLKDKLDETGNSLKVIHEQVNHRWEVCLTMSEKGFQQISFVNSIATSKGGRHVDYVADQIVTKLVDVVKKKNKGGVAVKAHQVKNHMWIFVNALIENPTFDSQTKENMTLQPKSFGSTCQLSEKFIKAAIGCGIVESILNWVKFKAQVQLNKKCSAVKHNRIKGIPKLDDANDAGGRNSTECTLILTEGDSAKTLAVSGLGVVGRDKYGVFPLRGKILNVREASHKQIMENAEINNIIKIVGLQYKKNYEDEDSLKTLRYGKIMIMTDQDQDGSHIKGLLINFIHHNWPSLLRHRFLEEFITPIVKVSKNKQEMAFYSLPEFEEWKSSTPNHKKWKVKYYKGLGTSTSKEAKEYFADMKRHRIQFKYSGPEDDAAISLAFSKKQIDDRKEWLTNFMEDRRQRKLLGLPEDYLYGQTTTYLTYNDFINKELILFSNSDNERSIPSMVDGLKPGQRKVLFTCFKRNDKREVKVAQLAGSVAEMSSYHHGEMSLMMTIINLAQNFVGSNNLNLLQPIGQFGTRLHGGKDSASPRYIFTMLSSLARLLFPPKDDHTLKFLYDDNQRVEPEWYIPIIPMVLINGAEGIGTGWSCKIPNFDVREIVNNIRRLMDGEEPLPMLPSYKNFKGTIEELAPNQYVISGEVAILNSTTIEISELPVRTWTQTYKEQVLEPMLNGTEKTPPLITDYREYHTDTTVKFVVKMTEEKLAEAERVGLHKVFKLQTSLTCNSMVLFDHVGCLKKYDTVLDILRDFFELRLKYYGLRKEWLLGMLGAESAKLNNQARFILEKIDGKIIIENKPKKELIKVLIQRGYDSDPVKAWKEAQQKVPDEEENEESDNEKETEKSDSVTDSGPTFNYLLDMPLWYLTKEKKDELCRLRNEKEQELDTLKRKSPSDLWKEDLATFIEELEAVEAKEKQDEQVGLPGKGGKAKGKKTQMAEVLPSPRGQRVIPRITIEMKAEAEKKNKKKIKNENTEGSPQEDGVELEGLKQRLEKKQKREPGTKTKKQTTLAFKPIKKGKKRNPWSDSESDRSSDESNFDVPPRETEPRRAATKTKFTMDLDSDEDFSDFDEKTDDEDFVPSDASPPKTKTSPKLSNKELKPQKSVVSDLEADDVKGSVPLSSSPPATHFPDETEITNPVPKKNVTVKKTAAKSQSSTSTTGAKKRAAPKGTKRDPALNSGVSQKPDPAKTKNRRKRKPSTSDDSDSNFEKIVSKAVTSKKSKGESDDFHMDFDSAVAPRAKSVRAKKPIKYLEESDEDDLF
In the next assay the test system is T47D. The assay is described as follows: Cytotoxicity against human T47D cells measured after 2 days by MTT assay. Format: functional, cell-based. The note with it: 48 h. For orientation: Formazan colour is commonly taken as a measure of viable cells.
Assay [3] has as its target T1, DNA topoisomerase 1 (Homo sapiens). The assay is described as follows: Potency index, ratio of compound activity to CPT activity for inhibition of recombinant human topoisomerase 1 at 100 uM.
Assay [4] shares this target. The assay is described as follows: Inhibition of recombinant human topoisomerase 1 assessed as relaxation of supercoiled plasmid DNA pBR322 at 20 uM incubated for 30 mins by agarose gel electrophoresis.
The target is the same in assay [5]. The assay is described as follows: Potency index, ratio of compound activity to CPT activity for inhibition of recombinant human topoisomerase 1 at 20 uM.
The target of assay [6] is DNA topoisomerase 2-alpha (Homo sapiens) (UniProt P11388). The assay is described as follows: Inhibition of recombinant human topoisomerase 2alpha assessed as relaxation of supercoiled plasmid DNA pBR322 at 20 uM incubated for 30 mins by agarose gel electrophoresis.
The subject of the next assay is HCT-15. The assay is described as follows: Cytotoxicity against human HCT15 cells measured after 2 days by MTT assay. The assay is classed as functional, cell-based. The note with it: HCT-15, 48 h.
The target of assay [7] is DNA topoisomerase 2-alpha (Homo sapiens) (UniProt P11388). The assay is described as follows: Potency index, ratio of compound activity to etoposide activity for inhibition of recombinant human topoisomerase 2alpha at 20 uM.
For assay [8] the target is unchanged. The assay is described as follows: Inhibition of recombinant human topoisomerase 2alpha mediated decatenation using kDNA as substrate at 100 uM incubated for 30 mins by agarose gel electrophoresis.
The test system of the next assay is HeLa. The assay is described as follows: Cytotoxicity against human HeLa cells measured after 2 days by MTT assay. The assay is classed as functional, cell-based. The note with it: 48 h.
In assay [9] the target is DNA topoisomerase 2-alpha (Homo sapiens) (UniProt P11388). The assay is described as follows: Inhibition of recombinant human topoisomerase 2alpha mediated decatenation using kDNA as substrate at 50 uM incubated for 30 mins by agarose gel electrophoresis.
Assay [10] has the same target. The assay is described as follows: Potency index, ratio of compound activity to etoposide activity for inhibition of recombinant human topoisomerase 2alpha at 100 uM.

Turning to `O=c1[nH]c(-c2cccc3ccccc23)nc2ccc(N3CCOCC3)cc12`, the inhibition in [1] is 100%; in assay [2], 46.4%; in assay [4] it was 10.7%; in [6], 39.2%; in assay [8], 83.8%; in assay [9] it was 3.2%. Moreover, the IC50 in the assay with T47D was over 50 µM; in the assay with HCT-15, over 50 µM; in the assay on HeLa it was 0.12 µM. In addition, the Ratio in assay [3] came out at 1.24; in [5], 0.62; in assay [7], 0.78; in assay [10] it was 0.58.
Take `Cc1c2ccncc2c(C)c2c1[nH]c1ccccc12`: in assay [8], the inhibition turned out to be 88.3%.
As for `Cc1ccc2c(=O)[nH]c(-c3ccccc3C)nc2c1`, the inhibition came to 100% in assay [1]; 61.4% in [2]; 39.2% in [4]; 30.8% in [6]; 32.4% in assay [8]; 0% in [9]. Also, the IC50 in the assay with T47D is over 50 µM; in the assay with HCT-15 it was 11.9 µM; in the assay with HeLa it was over 50 µM. Also, the Ratio came to 1.29 in assay [3], 1.27 in assay [5], 0.62 in [7] and 0.77 in assay [10].
Turning to `COc1cccc(-c2nc3cc(C)ccc3c(=O)[nH]2)c1`, the inhibition in assay [1] worked out at 100%; in [2], 43.6%; in assay [4], 80%; in [6], 25.2%. For the same compound, the IC50 was over 50 µM in the assay on T47D, 4.85 µM with HCT-15 and 8.94 µM with HeLa. Also, the Ratio amounted to 1.29 in assay [3], 2.6 in [5], 0.5 in [7] and 0.54 in [10].
As to `Cc1ccc2nc(-c3cccc(C(F)(F)F)c3)[nH]c(=O)c2c1`, the inhibition was 45.8% in [1], 11.2% in assay [2], 4.2% in assay [4] and 0% in [6]. In addition, the IC50 in the assay with T47D, in the assay with HCT-15 and with HeLa was over 50 µM each time. In addition, the Ratio stood at 0.64 in [3], 0.13 in [5] and 0.14 in assay [10].
With `COc1cccc(-c2nc3ccc(C)cc3c(=O)[nH]2)c1`, the inhibition in assay [1] came out at 71.8%; in [2] it was 65.2%; in [4], 0%; in [6], 19%. Further, the figures for the IC50 with T47D, in the assay on HCT-15 and in the assay on HeLa were over 50 µM, 32 µM and over 50 µM, respectively. Besides, the Ratio was found to be 1.01 in [3], 0.38 in assay [7] and 0.81 in assay [10].
Consider `Cc1ccc2c(=O)[nH]c(-c3ccccc3N(C)C)nc2c1`, for which the inhibition was found to be 82.1% in assay [1], 28.1% in assay [2], 5.3% in assay [4] and 41.9% in [6]. Further, the 50% inhibitory concentration (IC50) in the assay with T47D is 4.43 µM; with HCT-15, 12.8 µM; with HeLa, 43.8 µM. Moreover, the Ratio in assay [3] stood at 0.19; in [5], 0.19; in [7], 0.84; in [10] it was 0.35.
Regarding `Cc1cccc(-c2nc3cc(C)ccc3c(=O)[nH]2)c1`, the inhibition in [1] turned out to be 100%; in assay [2], 40.4%; in assay [4], 56.3%; in assay [6], 24.9%. The IC50 in the assay with T47D is over 50 µM; in the assay with HCT-15, 21.1 µM; in the assay on HeLa, 11.2 µM. In addition, the Ratio in assay [3] was determined as 1.29; in assay [5] it was 1.83; in assay [7], 0.5; in [10] it was 0.5.
Take `Cc1ccc2nc(-c3ccccc3C(F)(F)F)[nH]c(=O)c2c1`: the inhibition is 72% in [1], 7.2% in assay [2], 21.1% in [4] and 0% in [6]. The IC50 with T47D is over 50 µM; in the assay on HCT-15, over 50 µM; in the assay with HeLa, 2.45 µM. Further, the Ratio in [3] was found to be 1.01; in assay [5], 0.65; in assay [10], 0.09.
